In patent US10780101B2, “Amide derivatives of squalamine for the treatment of infections” (VIRBAC, priority 2016, dated 2020):
Converted amounts (≈) assume the structure as drawn. Like-named read-outs stand apart in the source and are kept apart here.

Columns and labels:
[1] = test system: S. intermedius Animal (1051997); experiment: MIC determination, S. intermedius animal (1051997); type: cell-based; details: Staphylococcus intermedius; Gram-positive; Mueller-Hinton medium, 24 h at 37° C.
Procedure: (§1) A negative control (2 mL of sterile culture medium)
(§2) A positive control (1940 μL of culture medium+40 μL of DMSO+20 μL of the bacterial suspension) from a thawed biological strain (the biological strains are stored at −80° C. in glycerol).
(§3) The tubes were incubated at 37° C. for 24 hours at 100 rpm.
(§4) The microorganisms were handled under a type L2 laboratory fume cupboard and, before any handling, a UV cycle was programmed and only sterile material was used. […] The chemical compounds to be tested were prepared in a DMSO/methanol mixture (50/50) at a concentration of 5 mg/mL.
(§5) After 24 hours of incubation, a measurement of the optical density was taken using a spectrophotometer at 600 nm, collecting 100 μL of the bacterial suspension diluted in 900 μL of the sterile culture medium. This test required the use of a 96-well plate and the required volume of the microbial suspension to be seeded was calculated for an OD corresponding to a value equal to 0.01 in each well. In this plate, the first line corresponded to the negative control (195 μL of sterile culture medium in each well), the second line corresponded to the positive control (seeded culture medium supplemented with 2% of DMSO), and the third line was loaded twice with bacterial suspension; 8 μL of test product were placed in each well. Thereafter, a 0.5 cascade dilution was performed from this line.
(§6) The first column served as inhibition control. A sterile filter was then placed on the microplate, allowing the passage of gases but not of contaminants. The microplate was incubated at 37° C. under a humid atmosphere for 24 hours.
(§7) NB: The medium used is Mueller-Hinton (MH) medium for bacteria. All the tests were performed in duplicate.
(§8) After incubation, the filter was replaced with a transparent film, and an OD reading was then taken in an iEMS plate spectrophotometer at 620 nm. Calculation of the minimum inhibitory concentration (MIC) was performed.

CHO-K1 cells = experiment: WST1 cytotoxicity test on CHO-K1 cells; type: cell-based, Chinese hamster; details: Cricetulus griseus, read-out: IC50 (μg/mL) CHO
Procedure: Test WST1 was used to measure the cytotoxic activity of the products. This is a colorimetric test which makes it possible to measure the viability and the degree of cell proliferation. It is based on cleavage of the colorless tetrazolium salts WST-1 (4-[3-(4-iodophenyl)-2-(4-nitrophenyl)-2H-5-tetrazolio]-1,3-benzene disulfonate) with mitochondrial dehydrogenases to the yellow-colored formazan derivative, which may be quantified by spectrophotometry at 420-480 nm.
The WST1 test was performed on Chinese hamster ovary cells. The CHO-K1 cells (ATCC, USA) are kept in culture in McCoy's 5A medium supplemented with 10% fetal calf serum, 2 mM of L-glutamine and a mixture of penicillin-streptomycin (100 U/ml: 10 μg/ml). The culture is incubated at 37° C. under an atmosphere enriched in CO2 (5%), and subcultured every two days.
The cells are transferred into 96-well plates (25000 cells/mL) in whole McCoy's 5A medium, and maintained for 24 hours at 37° C. under a humid atmosphere enriched in CO2 (5%). Increasing concentrations of test products are added to the wells in double tests and 8 growth controls containing the cells in the medium alone are included in each series of tests. After 24 hours at 37° C. (5% CO2), the culture medium is removed, the cells are rinsed in phosphate buffer (PBS) and 50 μL of PBS containing 10% of reagent WST1 are added to each well. After 20 minutes of incubation at 37° C., the results are read by spectrophotometry at 450 nm.
The results are expressed in dose-response relationships, modeled by nonlinear regression analysis using the TableCurve software. The 50% inhibitory concentration (IC50) represents the concentration of product that is capable of reducing the cell viability by 50%.

E. coli Animal (1956) = experiment: MIC determination, E. coli animal (1956); type: cell-based; details: Escherichia coli; Gram-negative; Mueller-Hinton medium, 24 h at 37° C.
Procedure: as §1, §2, §3, §4, §5, §6, §7, §8

E. coli Human ATCC 28922 = experiment: MIC determination, E. coli human ATCC 28922; type: cell-based; details: Escherichia coli, ATCC28922; Gram-negative; Mueller-Hinton medium, 24 h at 37° C.
Procedure: as §1, §2, §3, §4, §5, §6, §7, §8

[2] = test system: P. aeruginosa Animal (1051575); experiment: MIC determination, P. aeruginosa animal (1051575); type: cell-based; details: Pseudomonas aeruginosa; Gram-negative; Mueller-Hinton medium, 24 h at 37° C.
Procedure: as §1, §2, §3, §4, §5, §6, §7, §8

[3] = test system: P. aeruginosa Human ATCC 27853; experiment: MIC determination, P. aeruginosa human ATCC 27853; type: cell-based; details: Pseudomonas aeruginosa, ATCC27853; Gram-negative; Mueller-Hinton medium, 24 h at 37° C.
Procedure: as §1, §2, §3, §4, §5, §6, §7, §8

[4] = test system: E. faecalis Human ATCC 29212; experiment: MIC determination, E. faecalis human ATCC 29212; type: cell-based; details: Enterococcus faecalis, ATCC29212; Gram-positive; Mueller-Hinton medium, 24 h at 37° C.
Procedure: as §1, §2, §3, §4, §5, §6, §7, §8

P. aeruginosa (1051575) = experiment: Potentiation of doxycycline activity (combination MIC); type: cell-based, Pseudomonas aeruginosa; details: for MIC - P. aeruginosa (1051575): content of compound of formula (I) to restore the doxycycline activity (at 2 μg/mL): in presence of doxycycline 2 μg/mL, 24 hours at 37° C.
S. aureus Animal (340) = experiment: MIC determination, S. aureus animal (340); type: cell-based; details: Staphylococcus aureus; Gram-positive; Mueller-Hinton medium, 24 h at 37° C.
Procedure: as §1, §2, §3, §4, §5, §6, §7, §8

[5] = test system: S. aureus Human ATCC 25923; experiment: MIC determination, S. aureus human ATCC 25923; type: cell-based; details: Staphylococcus aureus, ATCC25923; Gram-positive; Mueller-Hinton medium, 24 h at 37° C.
Procedure: as §1, §2, §3, §4, §5, §6, §7, §8

Structure (SMILES) | MIC [1] [µg/mL] | IC50 (CHO-K1 cells; CHO-K1, 24 h) [µg/mL] | MIC (E. coli Animal (1956)) [µg/mL] | MIC (E. coli Human ATCC 28922) [µg/mL] | MIC [2] [µg/mL] | MIC [3] [µg/mL] | MIC [4] [µg/mL] | MIC - P. aeruginosa (1051575): content of compound of formula (I) to restore the doxycycline activity (at 2 μg/mL) (P. aeruginosa (1051575)) [µg/mL] | MIC (S. aureus Animal (340)) [µg/mL] | MIC [5] [µg/mL] | synergism when administered with doxycycline (P. aeruginosa (1051575); doxycycline at 2 μg/mL) | IC50 (CHO-K1 cells; Table III, WST1 test, CHO-K1 cells, 24 hours) [µg/mL]
CC(C)NC(=O)CC[C@@H](C)[C@H]1CCC2C3CCC4C[C@@H](NCCNCCNCCNCCNCCN)CC[C@]4(C)C3C[C@H](O)[C@@]21C (stereo partly drawn) [(20), 3β-(pentaethylenehexamine)-N-isopropyldeoxycholamide] | 4 (≈ 6.17 µM) | 18 (≈ 27.8 µM) | 16 (≈ 24.7 µM) | 8 (≈ 12.3 µM) | 32 (≈ 49.4 µM) | 32 (≈ 49.4 µM) | 8 (≈ 12.3 µM) | 4 | 8 (≈ 12.3 µM) | 8 (≈ 12.3 µM) | – | –
CC(C)NC(=O)CC[C@@H](C)[C@H]1CCC2C3CCC4C[C@@H](NCCCN5CCN(CCCN)CC5)CC[C@]4(C)C3C[C@H](O)[C@@]21C (stereo partly drawn) [(3), 3β-(1,4-bis(3-aminopropyl)piperazine)-N-isopropyldeoxycholamide] | 4 (≈ 6.49 µM) | 120 (≈ 195 µM) | > 124 | 124 (≈ 201 µM) | 62 (≈ 101 µM) | 124 (≈ 201 µM) | 124 (≈ 201 µM) | 2 | 15 (≈ 24.4 µM) | 15 (≈ 24.4 µM) | – | –
CC(C)NC(=O)CC[C@@H](C)[C@H]1CCC2C3CCC4C[C@@H](NCCCN(C)CCCN)CC[C@]4(C)C3CC[C@@]21C (stereo partly drawn) [(29), 3β-(bis(3-aminopropyl)methylamine)-N-isopropyllithocholamide] | 7 (≈ 12.8 µM) | 6 (≈ 11 µM) | 28 (≈ 51.4 µM) | 28 (≈ 51.4 µM) | 112 (≈ 206 µM) | 112 (≈ 206 µM) | 28 (≈ 51.4 µM) | 7 | 14 (≈ 25.7 µM) | 14 (≈ 25.7 µM) | – | –
CC(C)NC(=O)CC[C@@H](C)[C@H]1CCC2C3C(CC[C@@]21C)[C@@]1(C)CC[C@H](NCCNCCNCCNCCNCCN)CC1C[C@H]3O (stereo partly drawn) [(22), 3β-(pentaethylenehexamine)-N-isopropylchenodeoxycholamide] | 2 (≈ 3.09 µM) | 120 (≈ 185 µM) | 32 (≈ 49.4 µM) | 32 (≈ 49.4 µM) | 65 (≈ 100 µM) | 130 (≈ 201 µM) | 32 (≈ 49.4 µM) | 4 | 8 (≈ 12.3 µM) | 8 (≈ 12.3 µM) | – | –
CCN(CC)C(=O)CC[C@@H](C)[C@H]1CCC2C3C(CC[C@@]21C)[C@@]1(C)CC[C@H](NCCCNCCNCCCN)CC1C[C@H]3O (stereo partly drawn) [(53), 3β-(bis(3-aminopropyl)ethylenediamine)-N,N-diethylchenodeoxycholamide] | 2 (≈ 3.31 µM) | 30 (≈ 49.7 µM) | 15 (≈ 24.8 µM) | 60 (≈ 99.3 µM) | 15 (≈ 24.8 µM) | 30 (≈ 49.7 µM) | 2 (≈ 3.31 µM) | 2 | 4 (≈ 6.62 µM) | 4 (≈ 6.62 µM) | – | –
CC(C)NC(=O)CC[C@@H](C)[C@H]1CCC2C3C(C[C@H](O)[C@@]21C)[C@@]1(C)CC[C@H](NCCCNCCCCNCCCN)CC1C[C@H]3O (stereo partly drawn) [Compound (31), 3β-spermino-N-isopropylcholamide] | 4 (≈ 6.31 µM) | 40 (≈ 63.1 µM) | 32 (≈ 50.5 µM) | 16 (≈ 25.2 µM) | 32 (≈ 50.5 µM) | 64 (≈ 101 µM) | 8 (≈ 12.6 µM) | 1 | 8 (≈ 12.6 µM) | 4 (≈ 6.31 µM) | – | –
CNC(=O)CC[C@@H](C)[C@H]1CCC2C3C(CC[C@@]21C)[C@@]1(C)CC[C@H](NCCCNCCCCNCCCN)CC1C[C@H]3O (some centres unmarked) [Compound (33)] | 0.8 (≈ 1.36 µM) | 35 (≈ 59.3 µM) | 7 (≈ 11.9 µM) | 14 (≈ 23.7 µM) | 2 (≈ 3.39 µM) | 7 (≈ 11.9 µM) | 14 (≈ 23.7 µM) | 1 | 1 (≈ 1.7 µM) | 3.5 (≈ 5.93 µM) | – | –
CC(C)NC(=O)CC[C@@H](C)[C@H]1CCC2C3C(CC[C@@]21C)[C@@]1(C)CC[C@H](NCCCN2CCN(CCCN)CC2)CC1C[C@H]3O (stereo partly drawn) [(9), 3β-(1,4-bis(3-aminopropyl)piperazine)-N-isopropylchenodeoxycholamide] | 8 (≈ 13 µM) | 90 (≈ 146 µM) | 15 (≈ 24.4 µM) | 15 (≈ 24.4 µM) | 62 (≈ 101 µM) | 124 (≈ 201 µM) | 62 (≈ 101 µM) | 2 | 8 (≈ 13 µM) | 16 (≈ 26 µM) | noteworthy synergism | –
CC(C)N(C(=O)CC[C@@H](C)[C@H]1CCC2C3C(CC[C@@]21C)[C@@]1(C)CC[C@H](NCCCNCCNCCCN)CC1C[C@H]3O)C(C)C (stereo partly drawn) [(54), 3β-(bis(3-aminopropyl)ethylenediamine)-N,N-diisopropylchenodeoxycholamide] | 2 (≈ 3.16 µM) | 22 (≈ 34.8 µM) | 8 (≈ 12.7 µM) | 125 (≈ 198 µM) | 16 (≈ 25.3 µM) | 32 (≈ 50.6 µM) | 2 (≈ 3.16 µM) | 2 | 4 (≈ 6.33 µM) | 4 (≈ 6.33 µM) | – | –
CCN(CC)C(=O)CC[C@@H](C)[C@H]1CCC2C3C(CC[C@@]21C)[C@@]1(C)CC[C@H](NCCCNCCCNCCCN)CC1C[C@H]3O (stereo partly drawn) [(39), 3β-norspermino-N,N-diethylchenodeoxycholamide] | 1 (≈ 1.62 µM) | – | 4 (≈ 6.47 µM) | 120 (≈ 194 µM) | 8 (≈ 12.9 µM) | 15 (≈ 24.3 µM) | – | 2 | 1 (≈ 1.62 µM) | 2 (≈ 3.24 µM) | – | –
CC(C)NC(=O)CC[C@@H](C)[C@H]1CCC2C3C(CC[C@@]21C)[C@@]1(C)CC[C@H](NCCNCCNCCNCCNCCN)CC1C[C@@H]3O (stereo partly drawn) [(23), 3β-(pentaethylenehexamine)-N-isopropylursodeoxycholamide] | 16 (≈ 24.7 µM) | – | 128 (≈ 198 µM) | 128 (≈ 198 µM) | 128 (≈ 198 µM) | 128 (≈ 198 µM) | 64 (≈ 98.8 µM) | – | 32 (≈ 49.4 µM) | 32 (≈ 49.4 µM) | – | 115 (≈ 177 µM)
CC(C)NC(=O)CC[C@@H](C)[C@H]1CCC2C3C(CC[C@@]21C)[C@@]1(C)CC[C@H](NCCCN2CCN(CCCN)CC2)CC1C[C@@H]3O (stereo partly drawn) [(16), 3β-(1,4-bis(3-aminopropyl)piperazine)-N-isopropylursodeoxycholamide] | 15 (≈ 24.4 µM) | – | 120 (≈ 195 µM) | 60 (≈ 97.4 µM) | > 120 | > 120 | 120 (≈ 195 µM) | – | 60 (≈ 97.4 µM) | 60 (≈ 97.4 µM) | – | –
